The record followed here is patent US9062027B2, “Carboxamide compounds and their use as calpain inhibitors V” (AbbVie Deutschland GmbH & Co. KG, priority 2010, dated 2015).

SMILES strings stand for the structures. pKi: −log10 of the molar value.

Broadly, the pKi is the Ki on a negative log10 scale, so that one unit is a factor of ten. What is called bioavailability is the share of a dose that reaches the circulation, judged against a reference dose that is usually intravenous.

In one data set the target is T1, calpain-I (Homo sapiens, UniProt P07384).
T1 construct: calpain-I—isolated from human erythrocytes; purchased Calbiochem 208713; host or cells: human erythrocytes (native tissue isolate)
T1 sequence (P07384 1-714): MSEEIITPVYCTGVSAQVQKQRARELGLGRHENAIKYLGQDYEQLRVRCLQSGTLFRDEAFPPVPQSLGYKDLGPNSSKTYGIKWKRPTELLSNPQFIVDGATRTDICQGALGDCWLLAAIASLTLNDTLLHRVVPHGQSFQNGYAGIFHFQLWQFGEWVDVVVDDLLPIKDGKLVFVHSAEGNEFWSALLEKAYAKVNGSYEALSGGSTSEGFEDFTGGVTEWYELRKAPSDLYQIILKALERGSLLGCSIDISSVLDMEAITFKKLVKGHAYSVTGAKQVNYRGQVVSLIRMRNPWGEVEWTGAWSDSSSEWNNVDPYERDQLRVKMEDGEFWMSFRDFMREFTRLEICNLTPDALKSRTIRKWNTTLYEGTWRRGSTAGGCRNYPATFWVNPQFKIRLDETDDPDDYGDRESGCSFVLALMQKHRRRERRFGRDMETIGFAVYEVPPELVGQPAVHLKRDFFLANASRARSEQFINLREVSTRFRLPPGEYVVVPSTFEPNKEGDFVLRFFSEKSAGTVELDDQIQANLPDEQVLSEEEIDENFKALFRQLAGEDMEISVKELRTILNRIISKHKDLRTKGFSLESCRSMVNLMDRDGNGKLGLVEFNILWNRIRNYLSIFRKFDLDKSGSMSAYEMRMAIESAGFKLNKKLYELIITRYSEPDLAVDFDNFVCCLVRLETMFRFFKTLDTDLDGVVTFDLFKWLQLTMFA
T1 sequence (P04632 1-268 partner): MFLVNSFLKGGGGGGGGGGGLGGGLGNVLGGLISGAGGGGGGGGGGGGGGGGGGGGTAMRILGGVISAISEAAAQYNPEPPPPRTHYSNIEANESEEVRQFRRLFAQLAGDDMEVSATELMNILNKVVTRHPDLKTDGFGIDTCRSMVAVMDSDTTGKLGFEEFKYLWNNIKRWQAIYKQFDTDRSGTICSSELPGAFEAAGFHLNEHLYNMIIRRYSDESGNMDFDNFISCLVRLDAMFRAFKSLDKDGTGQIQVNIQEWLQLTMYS
The data set is described as follows: Calpain I enzyme inhibition in vitro (kinetic fluorescence assay). The conditions noted are these: apparent Ki from IC50 by Cheng-Prussoff; calpain-I from human erythrocytes, pH 7.3. It counts as biochemical. As to the method: Testing for blockade of the corresponding enzymic activities was carried out by means of kinetic fluorescence assays (excitation 390 nm, emission 460 nm).
Apparent Ki values were calculated from the experimentally determined IC50 values by the Cheng-Prussoff relation assuming a reversible competitive enzyme inhibition.
20 nM calpain-I—isolated from human erythrocytes (Calbiochem #208713), 100 μM Suc-Leu-Tyr-AMC (Bachem #I-1355) as substrate in buffer with 62 mM imidazole, 0.3 mM CaCl2, 0.10% CHAPS, 0.05% BSA, 1 mM DTT at pH 7.3 and room temperature.

Data set [1] in a line: In-vivo pharmacokinetics and metabolite to parent ratio in plasma of cynomolgus monkeys. The settings on record: cynomolgus monkey, female cynomolgus monkeys, 3 mg/kg oral versus 1 mg/kg intravenous.
Procedure: The tested compounds were prepared as a solution for either intravenous or oral administration to groups of female cynomolgus monkeys. For intravenous dosing, the compounds were prepared in a 10% DMSO/PEG-400 vehicle at a concentration of 2 mg/ml. For oral dosing, the compounds were prepared in a lipid based vehicle at a concentration of 3 mg/ml. Groups of three monkeys received either a 1 mg/kg (0.5 ml/kg) intravenous dose or a 3 mg/kg (1 ml/kg) oral dose. The intravenous dose was administered as a slow bolus in a saphenous vein; the oral dose was administered by gastric intubation and was followed by ˜5 ml water. […] The samples were reconstituted with an aliquot of mobile phase, followed by quantification by HPLC-MS/MS. Standard curves for both parent and the selected metabolites were prepared from authentic standards in blank monkey plasma; standards were analyzed simultaneously with the samples. The plasma concentration of each sample was calculated by least squares linear regression analysis of the peak area ratio (parent or metabolite/internal standard) of the spiked plasma standards versus concentration.
Peak plasma concentrations (Cmax) and the time to peak plasma concentration (Tmax) were read directly from the plasma concentration data for each monkey. […] The apparent total plasma clearance (CLp) was calculated by dividing the administered dose by the AUC0-inf. […]

Take `CCONC(=O)C(=O)C(Cc1ccccc1)NC(=O)c1cccnc1-n1cc2ccccc2n1` (stereo not drawn) [Example 4, N-[4-(Ethoxyamino)-3,4-dioxo-1-phenyl-2-butanyl]-2-(2H-indazol-2-yl)nicotinamide]: the pKi at calpain-I was greater than 6.60.

With `O=C(NC1CC1)C(=O)C(Cc1ccccc1)NC(=O)c1cccnc1-n1cc2ccccc2n1` (stereo not drawn) [Example 1, N-[4-(Cyclopropylamino)-3,4-dioxo-1-phenylbutan-2-yl]-2-(2H-indazol-2-yl)nicotinamide], the pKi on calpain-I is 6.10 to 6.40.

Turning to `CONC(=O)C(=O)C(Cc1ccccc1)NC(=O)c1cccnc1-n1cc2cc(F)ccc2n1` (stereo not drawn) [Example 7, 2-(5-Fluoro-2H-indazol-2-yl)-N-[4-(methoxyamino)-3,4-dioxo-1-phenyl-2-butanyl]-3-pyridinecarboxamide], the pKi at calpain-I is greater than 6.60.

In the case of `CCNC(=O)C(=O)C(Cc1ccccc1)NC(=O)c1cccnc1-n1cc2ccccc2n1` (stereo not drawn) [Example 2, N-[4-(Ethylamino)-3,4-dioxo-1-phenyl-2-butanyl]-2-(2H-indazol-2-yl)nicotinamide], the “Calpain activity (Ki(calpain))” value at calpain-I is reported as “∘”.

Take `CONC(=O)C(=O)C(Cc1ccccc1)NC(=O)c1cccnc1-n1cc2ccc(F)cc2n1` (stereo not drawn) [Example 8, 2-(6-Fluoro-2H-indazol-2-yl)-N-[4-(methoxyamino)-3,4-dioxo-1-phenyl-2-butanyl]-3-pyridinecarboxamide]: the pKi on calpain-I is 6.40 to 6.60.

On to `NC(=O)C(=O)C(Cc1ccccc1)NC(=O)c1cccnc1-n1cc2ccccc2n1` (stereo not drawn) [comp. ex., N-(3-Amino-1-benzyl-2,3-dioxopropyl)-2-(2H-indazol-2-yl)nicotinamide], for which the bioavailability in data set [1] amounted to 3%.

On to `O=C(NC1CC1)C(=O)C(Cc1ccccc1)NC(=O)c1cccnc1-n1cc2c(n1)CCCC2` (stereo not drawn) [Example 5, N-[4-(Cyclopropylamino)-3,4-dioxo-1-phenyl-2-butanyl]-2-(4,5,6,7-tetrahydro-2H-indazol-2-yl)nicotinamide], for which the pKi at calpain-I is 6.10 to 6.40.

On to `CONC(=O)C(=O)C(Cc1ccccc1)NC(=O)c1cccnc1-n1cc2ccccc2n1` (stereo not drawn) [Example 3, 2-(2H-Indazol-2-yl)-N-[4-(methoxyamino)-3,4-dioxo-1-phenyl-2-butanyl]nicotinamide], for which, on calpain-I, the pKi was greater than 6.60.

As to `CONC(=O)C(=O)C(Cc1ccccc1)NC(=O)c1cccnc1-n1cc2ccc(C(F)(F)F)cc2n1` (stereo not drawn) [Example 9, N-[4-(Methoxyamino)-3,4-dioxo-1-phenyl-2-butanyl]-2-[6-(trifluoromethyl)-2H-indazol-2-yl]-3-pyridinecarboxamide], on calpain-I, the pKi is greater than 6.60.
